In patent US20210246140A1, “MODULATORS OF METABOTROPIC GLUTAMATE RECEPTOR 2” (The General Hospital Corporation, priority 2020, published 2021):
Values belong to the compound of their own block, whether it stands above or below them.

How the values were obtained:
mGluR2 in rat brain = mGluR2 in rat brain (Rattus norvegicus, UniProt P31421); assay: In vivo PET imaging of [11C]1 in rat brain with blocking studies
Method: The rats were adjusted into the scanner for imaging position (Triumph II Preclinical Imaging System, Trifoil Imaging, LLC, Northridge, Calif.). The vital signs such as heart rate and/or breathing were monitored throughout the imaging. […] The “cold” compounds were administered (i.v., 4 mg/kg) 10 min before the radioactivity. CT scan was performed after every PET imaging study to obtain anatomical information and correction for attenuation. […] The ROIs, i.e., whole brain, thalamus, cerebellum, striatum, and cortex, were drawn onto coronal PET slices according to the brain outlines as derived from the rat brain atlas and corresponding TACs (time-activity curves) were created by PMOD 3.2 (PMOD Technologies Ltd., Zurich, Switzerland). Percent changes between the control and blocking studies were calculated in the selected brain areas at the 10-30 min time window after injection of [^11C]1.
The characterization of [11C]1 was conducted with rat (male Sprague-Dawley) studies. […] The rats were adjusted into the scanner for imaging position (Triumph II, Trifoil Imaging Inc, Northridge, Calif.). The vital signs such as heart rate and/or breathing were monitored throughout the imaging. […] When the blocking studies were done the imaging procedures started with the baseline study using [^11C]1 followed by 2 hrs later the blocking agent and another administration of [^11C]1 in the same animal. The blocking agent was administered intravenously 2 min before injection of the second [^11C]1 if self-blocking, 10 min before [^11C]1 if blocking was with JNJ The dynamic PET data was acquired starting from the injection of radioactivity and continued for 60 min. After the dynamic PET data acquisition CT imaging was done to obtain data for attenuation as well as anatomical information of the brain. […] Percent changes between the control and blocking studies were calculated in all brain areas. […]

Determination of Log P = type: physicochemical; settings: experimental lipophilicity
Method: Determination of Log P The Log P was determined using a reversed-phase HPLC method. First, seven reference compounds were examined to obtain the linear regression of the log P against the log of capacity factors by the expression: log Pow=a+b*log k. The Log P of these reference compounds was already been determined. The capacity factor k was calculated by the expression: k=(tR−t0)/t0. The retention time tR of test compound was determined on the HPLC (Agilent 1260 infinity II LC System, XTerra™ MS Cis 5μ 2.1×250 mm, methanol/water=75/25, 0.25 mL/min). The dead-time to was measured by using thiourea. The linear regression equation of the Log P against the log of capacity factors was generated in Excel: log Pow=3.049+2.429*log k, where R^2 was 0.9964. The retention time of compound 1, 2, and 7 was also determined on the HPLC under the same condition and each test was repeated three times (FIG. 5).
(§1) The experimental lipophilicity was measured by using liquid-liquid partition between n-octanol and water (“shake-flask method”) [see ref. 54]. […] The plasma protein binding comprises compounds' binding to albumin, α1-acid glycoprotein and lipoproteins once delivered to the bloodstream. This property was evaluated for compounds 1 and 2 by equilibrium dialysis [see ref. 56], where two chambers were separated by a dialysis membrane (MWCO 8 kD). The plasma protein bindings of 1 and 2 are 87.2% and 88.7%, respectively (see FIGS. 20 and 6). Therefore, the high plasma free fraction of compounds 1 and 2 (>10%) would allow enough free drug concentration in blood stream to reach the brain targets.

recombinant human P-gp = recombinant human P-gp (Homo sapiens, UniProt P08183); assay: P-gp ATPase assay (Pgp-Glo assay); type: biochemical; settings: human P-gp membrane, verapamil as positive control
Method: P-gp ATPase activity was measured with the Pgp-Glo™ assay system with human P-gp membrane by following the manufacturer's instructions (Promega, Co. USA). The assay relies on the ATP dependence of the light-generating reaction of firefly luciferase. Briefly, 25 μg of P-gp membrane was incubated at 37° C. with one of these samples including Na3VO4 (100 μM), solvent control (0.1% DMSO), quercetin (100 μM), the test compound (200 μM), verapamil (100 μM), verapamil (100 μM) plus the test compound (100 μM). The ATPase reaction was initiated by addition of MgATP (5 mM) and followed by incubation for 40 min at 37° C. The reaction was stopped, and the remaining unmetabolized ATP was detected as a luciferase-generated luminescence signal by addition of ATP detection reagent. Following a room-temperature signal-stabilization period (20 min), luminescence was read on a Veritas microplate luminometer (Tuner Designs, San Francisco, Calif.). P-gp ATPase activity was presented as a drop-in luminescence of samples compared to that treated with Na3VO4.
We further evaluated compounds 1, 2, and 7 using Pgp-Go™ assay to investigate whether the brain penetration will be affected by P-glycoprotein (P-gp) efflux transporter. The Pgp-Go™ assay [see ref. 63] was carried out on recombinant human P-gp in a cell membrane fraction. […]

[1] = Plasma protein binding assay (equilibrium dialysis, RED device); type: in vitro ADME; settings: rat plasma
Method: Disposable RED device inserts (product 90006) were from Thermos Scientific (Waltham, Mass.). Each insert was made of two side-by-side chambers separated by a vertical cylinder of dialysis membrane (MWCO 8,000) validated for minimal non-specific binding. A stock solution of the test compound in DMSO was spiked into the rat plasma to reach a concentration of 10 μM. 400 μL of sample solution was placed into the sample chamber of the RED device, and 600 μL of phosphate-buffered saline (PBS) was added to the buffer chamber of the RED device. Samples were prepared in triplicates. The plate was covered with aluminum sealing cover and incubated at 37° C. on an orbital shaker at approximately 200 rpm for 5 h. After incubation, 300 μL of post-dialysis samples from the buffer and sample chambers were transferred to different microcentrifuge tubes. To the buffer sample was added 300 μL of plasma, and an equal volume of buffer was added to the collected plasma sample. 600 μL of cold acetonitrile was added to the samples, and the samples were vortexed and incubated for 30 min on ice and then were centrifuged at 14000 rpm for 10 min. Supernatant was transferred to vial for HPLC analysis (XTerra™ MS C18 5μ, 2.1×250 mm column; Gradient elution from 5% to 90% B in 30 min; 0.1 M ammonium formate in water (A) and acetonitrile (B); UV 254 nm; 100 μL of injection volume). The percentage of the test bound compound was calculated as % Free=(Concentration in buffer chamber/Concentration in plasma chamber)×100%; % Bound=100%−% Free (FIG. 6).
as §1

[2] = Microsomal stability in rat liver microsomes; type: in vitro ADME; settings: rat liver microsomes with NADPH, ML128 as positive control
Method: Compound stability in rat liver microsomal was tested using a published method. [see refs. 57, 58] In a vial 1.5 μL of test compound (1 mM in DMSO stock solution) was mixed with 432 μL of PBS (50 mM, pH 7.4). The mixture was kept at 37° C. for 10 min before adding 13 μL of Sprague-Dawley rat liver microsomes (Sigma-Aldrich, No. M9066). The vial was vortexed and shaken at 37° C. for 5 min, followed by addition of 50 μL of NADPH (10 mM in PBS stock solution) to start the reaction. The mixture was incubated at 37° C. for 0, 5, 15, 30, 45 min, respectively, and quenched by addition of 250 μL of ice-cold acetonitrile and 3 μL of the internal standard (0.5 mM in DMSO). The quenched solutions were centrifuged at 10,000 g for 15 min. The supernatant was collected and quantitated by RP-HPLC (Phenomenex Luna® column 5 μC18, 100 Å, 250×4.6 mm; 0.7 mL/min, 15 min, Acetonitrile/water/0.1% FA). The procedure was repeated three times for each compound. Compound 1-OH was used as internal standard and compound ML128 served as positive control. The percentage of remaining intact test-compound was calculated by (peak area at the specific time point)/(peak area at 0 min)×100%. Each procedure was repeated three times (FIGS. 8 and 9). For FIG. 8, the natural logarithm (In) of peak area ratio (test compound peak area/internal standard peak area) was plotted against time and the gradient of the line was determined. Subsequently, the half-life (t1/2) min was calculated as 0.693/k, where the elimination rate constant (k) equals to negative gradient. V (μL/mg) was obtained as a ratio of volume of incubation (μL)/protein in the incubation (mg). Finally, the intrinsic clearance (CLint) (μL/min/mg protein) was calculated as V×0.693/t1/2.
(§2) The in vitro plasma and liver microsomal stability of 1 and 2 were studied by incubating the test compounds in rat serum and rat liver microsomes as well as NADPH cofactor, respectively, using previously published methods [see refs. 57, 58]. […] The solution stability of 1 was evaluated with buffer solutions at pH 5.0, 7.4 and 9.4, respectively (FIGS. 10 and 20) [see refs. 61].

mGluR2 = biological target: T1, mGluR2 (Homo sapiens, UniProt Q14416); settings: calcium flux, Gα15 or Gα16 forced coupling; read-out: previously reported mGluR2 EC50; cited from earlier work
T1 construct: expressed in transfected cells

[3] = Plasma stability in rat serum; type: in vitro ADME; settings: 37° C., diltiazem as positive control
Method: Compound stability in rat serum was examined using a published method. [See ref. 57] Rat serum (100 μL, Abeam, Inc, No. ab7488) and test compound or control compound (2.5 μL, 1 mM in DMSO) was added to the individual tube. The tube was vortexed and incubated at 37° C. During the incubation, aliquots of 50 μL samples were quenched with ice-cold acetonitrile at 0, 15, 30, 60, and 120 min time points, respectively. After mixing, the quenched samples were centrifuged, and the supernatant was withdrawn for analysis by HPLC (Agilent 1260 infinity II LC System, XTerra™ MS C18, 5μ, 2.1×250 mm, 20 mM ammonium formate (A)/acetonitrile (B), 0.25 mL/min, gradient of 5% to 100% B). The samples were assayed at least three times. Compound 1-OH was used as internal standard while diltiazem was used as a positive control. The percentage remaining was calculated by (peak area at the specific time point)/(peak area at 0 min)×100% (FIG. 7).
as §2

[4] = Ex vivo whole body biodistribution of [11C]1; type: in vivo, Sprague Dawley rats
Method: The quantitative biodistribution of [^11C]1 was done using 16 healthy Sprague Dawley rats (weight 330-370 g). After anesthetization (2% isoflurane with oxygen flow of 1.5 L/min) the rats were administrated with the [^11C]1 (30-42 MBq (0.81-1.14 mCi) using tail vein injection and sacrificed by decapitation at the time points 5, 20, 30 or 40 min after administration of the radioactivity. The tissue samples including blood, midbrain, cerebellum, cortex, lung, heart, liver, spleen, kidney and muscle were rapidly collected into pre-weighted gamma-counting tubes and measured with standards (samples of [^11C]1) using PerkinElmer Wizard2 2480 gamma-counter. Tubes were weighted, and the net mass of the tissue samples was determined and the percent of the injected radioactivity (% ID/g) in the samples was calculated.
The ex vivo biodistribution was performed in 16 normal male Sprague Dawley rats after intravenous injection of [^11C]1 at several time points (5, 20, 30 and 40 min). The uptake value is expressed in the unit of % ID/g. […] The highest accumulation was measured in the liver (2.73±0.02% ID/g) followed by kidney (1.05±0.07% ID/g), spleen (0.67±0.05% ID/g), lung (0.59±0.04% ID/g), and heart (0.58±0.05% ID/g). […] The average accumulation of [^11C]1 in the rat brain at 5 min was (0.49±0.07% ID/g) (FIG. 22).

mGluR2 in rat brain, sequence (P31421 19-872): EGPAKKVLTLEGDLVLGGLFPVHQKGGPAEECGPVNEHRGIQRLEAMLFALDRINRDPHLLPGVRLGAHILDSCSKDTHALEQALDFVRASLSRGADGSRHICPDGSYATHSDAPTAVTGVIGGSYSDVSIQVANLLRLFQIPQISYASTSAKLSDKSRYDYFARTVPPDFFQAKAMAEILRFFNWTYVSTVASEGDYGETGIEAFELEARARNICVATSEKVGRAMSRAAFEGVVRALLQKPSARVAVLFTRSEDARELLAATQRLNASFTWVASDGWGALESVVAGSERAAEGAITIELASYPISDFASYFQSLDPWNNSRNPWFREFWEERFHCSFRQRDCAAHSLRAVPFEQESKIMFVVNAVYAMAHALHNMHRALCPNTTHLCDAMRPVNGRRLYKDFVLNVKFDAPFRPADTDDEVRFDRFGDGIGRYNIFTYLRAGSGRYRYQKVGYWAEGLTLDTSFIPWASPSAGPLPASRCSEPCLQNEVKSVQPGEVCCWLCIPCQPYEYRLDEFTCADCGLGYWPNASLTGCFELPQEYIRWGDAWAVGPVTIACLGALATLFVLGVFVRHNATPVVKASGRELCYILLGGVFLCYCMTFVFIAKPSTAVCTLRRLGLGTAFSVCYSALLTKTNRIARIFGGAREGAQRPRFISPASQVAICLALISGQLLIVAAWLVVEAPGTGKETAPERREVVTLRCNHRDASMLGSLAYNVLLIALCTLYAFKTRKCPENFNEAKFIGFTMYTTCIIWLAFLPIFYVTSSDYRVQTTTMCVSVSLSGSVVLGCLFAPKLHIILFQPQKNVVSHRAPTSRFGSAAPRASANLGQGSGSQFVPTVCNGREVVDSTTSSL
T1 sequence (Q14416 19-872): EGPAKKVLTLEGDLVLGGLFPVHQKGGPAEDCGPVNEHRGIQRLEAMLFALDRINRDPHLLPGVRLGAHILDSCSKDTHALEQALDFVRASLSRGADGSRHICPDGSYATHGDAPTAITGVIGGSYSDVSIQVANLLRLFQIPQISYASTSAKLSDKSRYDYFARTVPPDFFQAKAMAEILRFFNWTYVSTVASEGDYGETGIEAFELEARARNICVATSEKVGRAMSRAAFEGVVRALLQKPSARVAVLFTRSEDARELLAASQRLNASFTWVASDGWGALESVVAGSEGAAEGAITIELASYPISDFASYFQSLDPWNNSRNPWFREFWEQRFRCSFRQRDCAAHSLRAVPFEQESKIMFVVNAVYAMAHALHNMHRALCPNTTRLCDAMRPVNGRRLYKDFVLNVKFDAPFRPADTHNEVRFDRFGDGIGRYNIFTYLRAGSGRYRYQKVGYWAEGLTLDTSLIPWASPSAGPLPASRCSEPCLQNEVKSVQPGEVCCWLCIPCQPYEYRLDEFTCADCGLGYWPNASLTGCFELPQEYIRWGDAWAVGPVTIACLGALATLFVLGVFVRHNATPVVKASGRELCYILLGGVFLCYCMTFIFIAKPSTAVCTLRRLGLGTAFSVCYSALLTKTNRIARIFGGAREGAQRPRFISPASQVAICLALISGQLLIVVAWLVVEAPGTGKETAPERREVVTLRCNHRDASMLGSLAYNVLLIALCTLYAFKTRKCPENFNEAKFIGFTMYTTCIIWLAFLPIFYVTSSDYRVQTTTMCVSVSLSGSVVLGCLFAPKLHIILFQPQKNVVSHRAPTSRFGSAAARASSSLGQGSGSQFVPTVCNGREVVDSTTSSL
recombinant human P-gp, sequence (P08183 whole entry): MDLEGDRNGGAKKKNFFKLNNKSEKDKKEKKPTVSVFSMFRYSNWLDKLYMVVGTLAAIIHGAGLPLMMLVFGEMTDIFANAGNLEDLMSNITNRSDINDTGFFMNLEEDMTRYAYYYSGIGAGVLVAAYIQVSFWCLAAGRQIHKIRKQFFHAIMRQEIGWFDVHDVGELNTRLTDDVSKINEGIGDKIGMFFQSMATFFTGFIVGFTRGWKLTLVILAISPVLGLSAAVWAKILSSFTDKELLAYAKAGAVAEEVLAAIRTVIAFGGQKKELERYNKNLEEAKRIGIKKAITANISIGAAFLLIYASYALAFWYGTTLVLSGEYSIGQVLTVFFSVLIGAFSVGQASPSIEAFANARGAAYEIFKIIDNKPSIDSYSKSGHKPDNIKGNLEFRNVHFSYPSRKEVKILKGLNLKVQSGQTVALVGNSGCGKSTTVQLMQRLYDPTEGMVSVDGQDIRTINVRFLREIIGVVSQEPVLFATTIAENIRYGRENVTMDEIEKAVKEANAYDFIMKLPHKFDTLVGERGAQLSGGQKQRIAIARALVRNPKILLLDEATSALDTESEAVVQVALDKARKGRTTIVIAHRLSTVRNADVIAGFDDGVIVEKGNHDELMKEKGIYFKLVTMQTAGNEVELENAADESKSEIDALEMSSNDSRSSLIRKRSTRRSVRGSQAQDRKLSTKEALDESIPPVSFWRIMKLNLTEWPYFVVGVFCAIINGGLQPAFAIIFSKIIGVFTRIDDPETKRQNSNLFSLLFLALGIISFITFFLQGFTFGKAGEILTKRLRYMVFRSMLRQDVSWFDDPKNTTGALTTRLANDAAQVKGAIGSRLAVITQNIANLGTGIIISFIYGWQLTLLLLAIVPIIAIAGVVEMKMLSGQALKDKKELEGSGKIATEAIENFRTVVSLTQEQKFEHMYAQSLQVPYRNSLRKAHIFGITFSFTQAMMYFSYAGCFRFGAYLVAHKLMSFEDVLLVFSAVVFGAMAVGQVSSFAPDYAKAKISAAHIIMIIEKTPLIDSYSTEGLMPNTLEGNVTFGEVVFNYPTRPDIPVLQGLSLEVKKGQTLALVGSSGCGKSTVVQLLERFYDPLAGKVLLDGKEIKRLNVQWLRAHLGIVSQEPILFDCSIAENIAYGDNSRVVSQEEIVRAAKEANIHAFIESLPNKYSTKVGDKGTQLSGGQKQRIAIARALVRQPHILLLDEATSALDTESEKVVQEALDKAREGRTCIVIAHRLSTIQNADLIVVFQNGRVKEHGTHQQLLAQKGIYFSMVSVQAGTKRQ

decrease of [11C]1 uptake in different brain areas after pretreatment (mGluR2 in rat brain; 4 mg/kg i.v. 10 min before [11C]1, 10-30 min time window): 28-37%
Structure (SMILES): Fc1ccc(N2CCN(Cc3ccn4c(CC5CC5)nnc4c3C(F)(F)F)CC2)c(F)c1 [Compound 3, 8-Trifluoromethyl-3-cyclopropylmethyl-7-[(4-(2,4-difluorophenyl)-1-piperazinyl)methyl]-1,2,4-triazolo[4,3-a]pyridine, reference compound]

log P (Determination of Log P; n-octanol/water): 3.3
P-gp substrate assessment / P-gp ATPase activity (recombinant human P-gp): a potential P-gp substrate
Structure (SMILES): COc1cc(C(F)(F)F)ccc1OC[C@@H]1[C@H]2CN(Cc3nc4ncccc4n3C)C[C@@H]12 [Compound 7]

plasma protein binding ([1]; equilibrium dialysis, 10 μM): 88.7%
fraction unbound at 5 h, 10 μM ([1]; read-out: plasma free fraction): > 0.1
microsomal stability [2]: reasonable microsomal stability
stability in rat plasma [3]: much more stable than diltiazem
Log P (Determination of Log P): 3.86
Structure (SMILES): COc1cc(C(F)(F)F)ccc1C1CCN(Cc2nc3nccc4c3n2CCC4)CC1 [Compound 2]
EC50 (mGluR2): 5 nM

average accumulation in the rat brain ([4]; i.v. [11C]1, brain at 5 min): 0.49±0.07 % ID/g
highest accumulation in heart ([4]; rat, i.v. [11C]1, heart): 0.58±0.05 % ID/g
highest accumulation in kidney ([4]; rat, i.v. [11C]1, kidney): 1.05±0.07 % ID/g
highest accumulation in liver ([4]; rat, i.v. [11C]1, liver): 2.73±0.02 % ID/g
highest accumulation in lung ([4]; rat, i.v. [11C]1, lung (maximum at 20 min)): 0.59±0.04 % ID/g
highest accumulation in spleen ([4]; rat, i.v. [11C]1, spleen): 0.67±0.05 % ID/g
SUVmax in brain (mGluR2 in rat brain; rat PET, n=9): 1.8±0.2
maximum SUV (time-activity curves) (mGluR2 in rat brain; rat PET, thalamus at 2 min post-injection): 2.3
Structure (SMILES): Cn1c(CN2CCC(c3ccc(C(F)(F)F)cc3O[11CH3])CC2)nc2ncccc21 [[^11C]1]
